In patent publication US20230278972A1, “SUBSTITUTED HALOALKYL SULFONANILIDE HERBICIDES” (FMC Corporation, priority 2020, published 2023):

Columns and labels:
Assay type in all cases: in vivo
[1] = system: goosegrass (Eleusine indica); assay: Test A1 postemergence, goosegrass; settings: Postemergence
In short: (§1)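 Herbicidal response was scored on plants treated either preemergence, by directed spray onto soil of a loam–sand blend after sowing, or postemergence on potted plants at the one- to two-leaf stage, 2–10 cm high. Test chemicals were carried in a non-phytotoxic solvent mix with surfactant.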

[2] = system: blackgrass (Alopecurus myosuroides); assay: Test A1 preemergence, blackgrass
In short: as §1

[3] = system: corn (Zea mays); assay: Test A1 postemergence, corn; settings: Postemergence
In short: as §1

[4] = system: goosegrass (Eleusine indica); assay: Test A1 preemergence, goosegrass
In short: as §1

[5] = system: Ryegrass, Italian (Italian ryegrass, Lolium multiflorum); assay: Test A1 postemergence, Ryegrass, Italian; settings: Postemergence
In short: as §1

[6] = system: Pigweed, Palmer (palmer amaranth, palmer pigweed, Amaranthus palmeri); assay: Test A1 preemergence, Pigweed, Palmer
In short: as §1

[7] = system: horseweed (Erigeron canadensis); assay: Test A1 postemergence, horseweed; settings: Postemergence
In short: as §1

[8] = system: soybean (Glycine max); assay: Test A1 preemergence, soybean
In short: as §1

[9] = 31 g ai/ha, 0 to 100 scale (0 no effect, 100 complete control), 10 days
[10] = 31 g ai/ha, 0 to 100 scale (0 no effect, 100 complete control)
[11] = 125 g ai/ha, 0 to 100 scale, 0 no effect, 100 complete control

SMILES	Plant response rating, Goosegrass [1, 9]	Plant response rating, Goosegrass ([1]; 125 g ai/ha, 0 to 100 scale)	Plant response rating, Blackgrass [2, 10]	Plant response rating, Blackgrass [2, 11]	Plant response rating, Corn [3, 9]	Plant response rating, Corn ([3]; 125 g ai/ha, 0 to 100 scale)	Plant response rating, Goosegrass [4, 10]	Plant response rating, Goosegrass [4, 11]	Plant response rating, Ryegrass, Italian [5, 9]	Plant response rating, Ryegrass, Italian ([5]; 125 g ai/ha, 0 to 100 scale)	Plant response rating, Pigweed, Palmer [6, 10]	Plant response rating, Pigweed, Palmer [6, 11]	Plant response rating, Horseweed [7, 9]	Plant response rating, Horseweed ([7]; 125 g ai/ha, 0 to 100 scale)	Plant response rating, Soybean [8, 10]	Plant response rating, Soybean [8, 11]
Cc1cc(C)c(N(COC(=O)C(C)(C)C)S(=O)(=O)C(F)(F)F)cc1C1=NOC2OCCC12 (centres unmarked) [Compound 352]	80	90	20	40	20	80	90	100	0	90	70	100	80	100	30	40
CCOC(=O)N(c1cc(C(=O)N2CCC(C)CC2)c(C)cc1C)S(=O)(=O)C(F)(F)F [Compound 354]	0	100	0	0	0	0	70	100	0	40	10	50	80	90	30	70
Cc1c(NS(=O)(=O)C(F)(F)F)cc(C(=O)N2CCC(Cl)CC2)c(C)c1C [Compound 356]	0	70	0	10	0	40	90	90	20	30	50	100	50	80	0	80
Cc1c(NS(=O)(=O)C(F)(F)F)cc(C(=O)N2CCC(F)(F)CC2)c(C)c1C [Compound 357]	0	70	0	10	0	0	80	100	20	20	40	100	20	80	0	20
Cc1c(NS(=O)(=O)C(F)(F)F)cc(C(=O)N2CCC(F)CC2)c(C)c1C [Compound 358]	0	80	0	10	0	0	30	100	20	20	90	90	60	70	50	70
